Data reported in publication PMC7414797 (Nature, 2015).
Values after ≈ are worked out from the molar mass of the structure shown. Values joined by “and” are separate entries in the source; they are usually repeats but may differ in a detail not shown here. Equal values may be shown once. Read-outs that look alike come from different tables or passages of the source.

Experiments:
S. epidermidis = assay: MIC by broth microdilution; type: cell-based; details: for MIC90: Staphylococcus epidermidis
Streptococcus pneumoniae = assay: MIC by broth microdilution; type: cell-based; details: for MIC90: Streptococcus pneumoniae, PRSP
Enterococcus faecalis = assay: MIC by broth microdilution; type: cell-based; details: for MIC90: Enterococcus faecalis, VRE; for MIC Range: Enterococcus faecalis 50% VRE, 10 contemporary clinical isolates
Staphylococcus aureus = assay: MIC by broth microdilution; type: cell-based; details: for MIC90: Staphylococcus aureus
S. aureus MRSA ATCC33591 = assay: Mouse sepsis protection model; type: in vivo, mice; details: MRSA septicemia, single i.v. dose 1 h post-infection, survival at 48 h
Streptococcus agalactiae = assay: MIC by broth microdilution; type: cell-based; details: for MIC90: Streptococcus agalactiae
Streptococcus pyogenes = assay: MIC by broth microdilution; type: cell-based; details: for MIC90: Streptococcus pyogenes
Enterococcus faecium = assay: MIC by broth microdilution; type: cell-based; details: for MIC90: Enterococcus faecium, VRE; for MIC Range: E. faecium 50%VRE, 10 contemporary clinical isolates
[1] = tested on: Viridans group streptococci; assay: MIC by broth microdilution; type: cell-based
[2] = S. epidermidis, 20 contemporary clinical isolates
[3] = S. aureus Daptomycin^NS, 5 contemporary clinical isolates
[4] = S. aureus MRSA, 20 contemporary clinical isolates
[5] = S. aureus VISA, 10 contemporary clinical isolates
[6] = Staphylococcus aureus MSSA, 20 contemporary clinical isolates
[7] = S. agalactiae, 10 contemporary clinical isolates
[8] = S. pyogenes, 10 contemporary clinical isolates
[9] = Viridans Group Streptococci, 5 isolates (S. sanguis, S. mitis, S. anginosus, S. intermedius, S. salivarius)

SMILES	MIC90 (S. epidermidis) [µg/mL]	MIC90 (Streptococcus pneumoniae) [µg/mL]	MIC90 (Enterococcus faecalis) [µg/mL]	MIC90 (Staphylococcus aureus; MRSA) [µg/mL]	MIC90 (Staphylococcus aureus; MSSA) [µg/mL]	MIC90 (Staphylococcus aureus; VISA) [µg/mL]	MIC90 (Streptococcus agalactiae) [µg/mL]	MIC90 (Streptococcus pyogenes) [µg/mL]	MIC90 (Enterococcus faecium) [µg/mL]	MIC Range (S. epidermidis; [2]) [µg/mL]	MIC Range (Enterococcus faecalis) [µg/mL]	MIC Range (Staphylococcus aureus; [3]) [µg/mL]	MIC Range (Staphylococcus aureus; [4]) [µg/mL]	MIC Range (Staphylococcus aureus; [5]) [µg/mL]	MIC Range (Staphylococcus aureus; [6]) [µg/mL]	MIC Range (Streptococcus agalactiae; [7]) [µg/mL]	MIC Range (Streptococcus pyogenes; [8]) [µg/mL]	MIC Range (Enterococcus faecium) [µg/mL]	MIC Range [1, 9] [µg/mL]	also measured
CN[C@H](CC(C)C)C(=O)N[C@H]1C(=O)N[C@@H](CC(N)=O)C(=O)N[C@H]2C(=O)N[C@H]3C(=O)N[C@H](C(=O)N[C@H](C(=O)O)c4cc(O)cc(O)c4-c4cc3ccc4O)[C@H](O)c3ccc(c(Cl)c3)Oc3cc2cc(c3O[C@@H]2O[C@H](CO)[C@@H](O)[C@H](O)[C@H]2O[C@H]2C[C@](C)(N)[C@H](O)[C@H](C)O2)Oc2ccc(cc2Cl)[C@H]1O [Vancomycin, vancomycin]	2 (≈ 1.38 µM)	0.25 (≈ 0.173 µM)	> 32	1 (≈ 0.69 µM)	1 (≈ 0.69 µM)	8 (≈ 5.52 µM)	0.5 (≈ 0.345 µM)	0.25 (≈ 0.173 µM)	> 32											MIC Range (S. epidermidis): 1 to 2 µg/mL; MIC Range (Streptococcus pneumoniae): 0.12 to 0.5 µg/mL; MIC Range (Staphylococcus aureus): 0.5 to 1 µg/mL and 0.5 to 2 µg/mL and 1 to 8 µg/mL and 0.5 to 8 µg/mL and 1 µg/mL; PD50 (protective dose at which half of the animals survive) (S. aureus MRSA ATCC33591): 2.75 mg per kg; MIC Range (Streptococcus agalactiae): 0.25 to 0.5 µg/mL; MIC Range (Streptococcus pyogenes): 0.25 µg/mL (≈ 0.173 µM); MIC Range [1]: 0.25 to 0.5 µg/mL
CC(=O)NC[C@H]1CN(c2ccc(N3CCOCC3)c(F)c2)C(=O)O1 [Linezolid]	2 (≈ 5.93 µM)	1 (≈ 2.96 µM)	2 (≈ 5.93 µM)	4 (≈ 11.9 µM)	4 (≈ 11.9 µM)	2 (≈ 5.93 µM)	1 (≈ 2.96 µM)	1 (≈ 2.96 µM)	2 (≈ 5.93 µM)	1 to 8	1 to 2	1 to 32	2 to 4	1 to 4	2 to 4	0.5 to 2	0.5 to 1	1 to 2	0.5 to 1	
CCCCCCCCCC(=O)N[C@@H](Cc1c[nH]c2ccccc12)C(=O)N[C@H](CC(N)=O)C(=O)N[C@@H](CC(=O)O)C(=O)N[C@@H]1C(=O)NCC(=O)N[C@@H](CCCN)C(=O)N[C@@H](CC(=O)O)C(=O)N[C@H](C)C(=O)N[C@@H](CC(=O)O)C(=O)NCC(=O)N[C@H](CO)C(=O)N[C@@H]([C@H](C)CC(=O)O)C(=O)N[C@@H](CC(=O)c2ccccc2N)C(=O)O[C@@H]1C [Daptomycin]	0.25 (≈ 0.154 µM)	≤ 0.03	0.5 (≈ 0.309 µM)	0.25 (≈ 0.154 µM)	0.25 (≈ 0.154 µM)	1 (≈ 0.617 µM)	0.12 (≈ 0.074 µM)	0.06 (≈ 0.037 µM)	1 (≈ 0.617 µM)	0.06 to 0.25	0.12 to 8	2 to 8	0.12 to 0.25	0.25 to 1	0.12 to 0.25	0.06 to 0.25	≤0.03 to 0.06	0.5 to 1	0.06 to 0.25	MIC Range (Staphylococcus aureus; S. aureus Linezolid^R, 5 contemporary clinical isolates): 0.25 to 0.5 µg/mL
